Experiments:
[1] = test system: Hepatitis C virus; assay: Antiviral activity against HCV genotype 1b infected in human HuH7 cells by luciferase reporter gene assay; format: functional, cell-based, Hepacivirus hominis; conditions: Huh-7
[2] = test system: Hepatitis C virus; assay: Antiviral activity against HCV genotype 1a infected in human HuH7 cells by luciferase reporter gene assay; format: functional, cell-based, Hepacivirus hominis; conditions: subtype 1a, Huh-7
[3] = Drug level in Sprague-Dawley rat liver at 5 mg/kg, po measured 4 hrs post dose; format: ADME, organism-based; set-up: dose 5 mg/kg, route oral; conditions: read-out: Drug uptake
[4] = Oral bioavailability in Sprague-Dawley rat at 5 mg/kg; format: ADME, organism-based; conditions: in vivo
[5] = Volume of distribution at steady state in Sprague-Dawley rat at 1 mg/kg, iv; format: ADME, organism-based; set-up: dose 1 mg/kg, route intravenous; conditions: in vivo, read-out: Vdss
[6] = AUC(last) in Sprague-Dawley rat at 5 mg/kg, po; format: ADME, organism-based; set-up: dose 5 mg/kg, route oral, time 0 - last; conditions: plasma
[7] = test system: Rattus norvegicus; assay: (§1) AUC(last) in Sprague-Dawley rat at 1 mg/kg, iv; format: ADME, organism-based, Plasma; set-up: time 0 - last, dose 1 mg/kg, route intravenous; conditions: in vivo
[8] = test system: Rattus norvegicus; assay: (§2) Clearance in Sprague-Dawley rat at 1 mg/kg, iv; format: ADME, organism-based; set-up: dose 1 mg/kg, route intravenous; conditions: in vivo
[9] = Tmax in Sprague-Dawley rat at 5 mg/kg, po; format: ADME, organism-based; set-up: dose 5 mg/kg, route oral; conditions: in vivo
[10] = test system: Hepatitis C virus; assay: Antiviral activity against HCV genotype 3a infected in human HuH7 cells by luciferase reporter gene assay; format: functional, cell-based, Hepacivirus hominis; conditions: Huh-7
[11] = Half life in Sprague-Dawley rat at 1 mg/kg, iv; format: ADME, organism-based; set-up: dose 1 mg/kg, route intravenous; conditions: in vivo
[12] = Plasma concentration in Sprague-Dawley rat at 5 mg/kg, po measured 4 hrs post dose; format: ADME, organism-based; set-up: dose 5 mg/kg, route oral
[13] = Cmax in Sprague-Dawley rat at 5 mg/kg, po; format: ADME, organism-based; set-up: dose 5 mg/kg, route oral; conditions: in vivo
[14] = as §1; format: ADME, organism-based, Plasma; set-up: time 0 - last, dose 1 mg/kg, route intravenous; conditions: Sprague-Dawley, plasma
[15] = as §2; format: ADME, organism-based; set-up: dose 1 mg/kg, route intravenous; conditions: Sprague-Dawley, in vivo
[16] = test system: Hepatitis C virus; assay: Antiviral activity against HCV genotype 6a infected in human HuH7 cells by luciferase reporter gene assay; format: functional, cell-based, Hepacivirus hominis; conditions: Huh-7
[17] = test system: Hepatitis C virus; assay: Antiviral activity against HCV genotype 5a infected in human HuH7 cells by luciferase reporter gene assay; format: functional, cell-based, Hepacivirus hominis; conditions: Huh-7
[18] = test system: Hepatitis C virus; assay: Antiviral activity against HCV genotype 4a infected in human HuH7 cells by luciferase reporter gene assay; format: functional, cell-based, Hepacivirus hominis; conditions: Huh-7

SMILES: COC(=O)N[C@H](C(=O)N1CCC[C@H]1c1ncc(-c2ccc3c(c2)Oc2ccc(-c4cnc([C@@H]5CCCN5C(=O)[C@@H](NC(=O)OC)C(C)C)[nH]4)cc2C(=O)N3)[nH]1)C(C)C
- EC50 [1]: > 3.7 nM
- EC50 [2]: > 100 nM

SMILES: COC(=O)N[C@H](C(=O)N1CCC[C@H]1c1ncc(-c2ccc3c(=O)c4cc(-c5cnc([C@@H]6CCCN6C(=O)[C@@H](NC(=O)OC)C(C)C)[nH]5)ccc4oc3c2)[nH]1)C(C)C
- EC50 [1]: 0.028 nM
- concentration at 4 h [3]: 25 ng/mL
- bioavailability [4]: 6.7%
- EC50 [2]: 0.173 nM
- Vd [5]: 3.57 L/kg
- AUC(0-t) [6]: 197 ng·h/mL
- AUClast [7]: 626 ng·h/mL
- CL [8]: 3.3 L/h/kg
- Tmax [9]: 0.5 h
- EC50 [10]: 1.4 nM
- half-life [11]: 55.2 min
- concentration at 4 h [12]: 14 ng/mL
- Cmax [13]: 96.5 ng/mL

SMILES: COC(=O)N[C@H](C(=O)N1CCC[C@H]1c1ncc(-c2ccc3c(c2)Cc2ccc(-c4cnc([C@@H]5CCCN5C(=O)[C@@H](NC(=O)OC)C(C)C)[nH]4)cc2O3)[nH]1)C(C)C
- EC50 [1]: 0.013 nM
- concentration at 4 h [3]: 462 ng/mL
- bioavailability [4]: 41.1%
- EC50 [2]: 0.098 nM
- Vd [5]: 1.32 L/kg
- AUC(0-t) [6]: 2090 ng·h/mL
- AUC(0-t) [14]: 1060 ng·h/mL
- clearance [15]: 15.8 mL/min/kg
- Tmax [9]: 3.33 h
- half-life [11]: 79.8 min
- concentration at 4 h [12]: 371 ng/mL
- Cmax [13]: 380 ng/mL

SMILES: COC(=O)N[C@H](C(=O)N1CCC[C@H]1c1ncc(-c2ccc3c(c2)Oc2ccc(-c4cnc([C@@H]5CCCN5C(=O)[C@@H](NC(=O)OC)C(C)C)[nH]4)cc2O3)[nH]1)C(C)C
- EC50 [1]: 0.023 nM
- concentration at 4 h [3]: 973 ng/mL
- bioavailability [4]: 20.1%
- EC50 [2]: 0.044 nM
- Vd [5]: 1.18 L/kg
- AUC(0-t) [6]: 1470 ng·h/mL
- AUC(0-t) [14]: 2570 ng·h/mL
- clearance [15]: 11.2 mL/min/kg
- Tmax [9]: 1.33 h
- EC50 [10]: 0.06 nM
- half-life [11]: 152 min
- concentration at 4 h [12]: 199 ng/mL
- Cmax [13]: 339 ng/mL

SMILES: COC(=O)N[C@H](C(=O)N1CCC[C@H]1c1ncc(-c2ccc3oc4ccc(-c5cnc([C@@H]6CCCN6C(=O)[C@@H](NC(=O)OC)C(C)C)[nH]5)cc4c3c2)[nH]1)C(C)C
- EC50 [1]: 0.17 nM
- EC50 [2]: 9 nM

SMILES: COC(=O)N[C@H](C(=O)N1CCC[C@H]1c1ncc(-c2ccc3c(c2)-c2ccc(-c4cnc([C@@H]5CCCN5C(=O)[C@@H](NC(=O)OC)C(C)C)[nH]4)cc2-3)[nH]1)C(C)C
- EC50 [1]: 0.55 nM
- EC50 [2]: 3 nM

SMILES: COC(=O)N[C@H](C(=O)N1CCC[C@H]1c1ncc(-c2ccc3c4ccc(-c5cnc([C@@H]6CCCN6C(=O)[C@@H](NC(=O)OC)C(C)C)[nH]5)cc4n(C)c3c2)[nH]1)C(C)C
- EC50 [1]: 0.17 nM
- EC50 [2]: 7.7 nM

SMILES: COC(=O)N[C@H](C(=O)N1CCC[C@H]1c1ncc(-c2ccc3c(c2)C(=O)c2cc(-c4cnc([C@@H]5CCCN5C(=O)[C@@H](NC(=O)OC)C(C)C)[nH]4)ccc2-3)[nH]1)C(C)C
- EC50 [1]: 0.045 nM
- EC50 [2]: 0.45 nM

SMILES: COC(=O)N[C@H](C(=O)N1CCC[C@H]1c1ncc(-c2ccc3c(c2)c(=O)c2ccc(-c4cnc([C@@H]5CCCN5C(=O)[C@@H](NC(=O)OC)C(C)C)[nH]4)cc2n3C)[nH]1)C(C)C
- EC50 [1]: 0.028 nM
- EC50 [2]: 11.1 nM

SMILES: COC(=O)N[C@H](C(=O)N1CCC[C@H]1c1ncc(-c2ccc3oc4cc(-c5cnc([C@@H]6CCCN6C(=O)[C@@H](NC(=O)OC)C(C)C)[nH]5)c(F)cc4c(=O)c3c2)[nH]1)C(C)C
- EC50 [1]: 0.03 nM
- EC50 [2]: 0.6 nM

SMILES: COC(=O)N[C@H](C(=O)N1CCC[C@H]1c1ncc(-c2ccc3oc4cc(-c5cnc([C@@H]6CCCN6C(=O)[C@@H](NC(=O)OC)C(C)C)[nH]5)c(C)cc4c(=O)c3c2)[nH]1)C(C)C
- EC50 [1]: 0.055 nM
- EC50 [2]: 3.4 nM

SMILES: COC(=O)N[C@H](C(=O)N1CCC[C@H]1c1ncc(-c2ccc(-c3ccc(-c4cnc([C@@H]5CCCN5C(=O)[C@@H](NC(=O)OC)C(C)C)[nH]4)cc3)cc2)[nH]1)C(C)C [DACLATASVIR]
- EC50 [1]: 0.073 nM
- EC50 [2]: 0.14 nM
- EC50 [16]: 0.45 nM
- EC50 [10]: 0.67 nM
- EC50 [17]: 0.051 nM
- EC50 [18]: 0.041 nM

Reference: ChEMBL document CHEMBL3351732, “Potent bisimidazole-based HCV NS5A inhibitors bearing annulated tricyclic motifs” (Bioorg Med Chem Lett, 2014)
